Experimental data as given in PubChem BioAssay AID1963965 (Molecular Pharmacology Branch, DTP, NCI, 2024).

Tested on: 996289-038-R-J1-PDC spheroid viability
Assay: Anticancer human tumor 996289-038-R-J1-PDC patient-derived colon adenocarcinoma cell line growth inhibition [PI3K]
Conditions: spheroids with HUVEC and MSC; for viability, T/C: stronger effect = lower value
Method in brief: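 Stroma-containing spheroids: tumor line, pooled-donor HUVEC, hMSC. Treatments: targeted agents with PI3K inhibitors. Dosing: clinically relevant, half-log spacing, 10 microM ceiling without known Cmax. Read-out: cell viability.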
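Note: spheroids exposed to compounds for seven days before viability read.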
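Throughout, for viability, T/C: luminescence used as a proxy for viable cell amount; percent viability relative to DMSO vehicle control as 100%.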

For `CCCS(=O)(=O)Nc1ccc(F)c(C(=O)c2c[nH]c3ncc(-c4ccc(Cl)cc4)cc23)c1F` + Cc1nc(NC(=O)N2CCCC2C(N)=O)sc1-c1ccnc(C(C)(C)C(F)(F)F)c1, the IC50 (curve of first compound, second compound 0.0316 µM) was 5.9 µM, the IC50 (curve of first compound, second compound 0.1 µM) was 5.51 µM and the IC50 (curve of first compound, second compound 0.316 µM) was 5.54 µM. For the same compound, the IC50 (curve of first compound, second compound 1 µM) was 3.45 µM, the IC50 (curve of first compound, second compound 3.16 µM) was 1.52 µM and the IC50 (curve of first compound, second compound 10 µM) was 0.0316 µM. It also gave a viability, T/C (second compound 0.0316 µM, first compound 0.0316 µM) of 90.2%, a viability, T/C (second compound 0.0316 µM, first compound 0.1 µM) of 86.1% and a viability, T/C (second compound 0.0316 µM, first compound 0.316 µM) of 108%. For the same compound, the viability, T/C (second compound 0.0316 µM, first compound 1 µM) was 96.1%, the viability, T/C (second compound 0.0316 µM, first compound 3.16 µM) was 82.6% and the viability, T/C (second compound 0.0316 µM, first compound 10 µM) was 22%. The viability, T/C (second compound 0.1 µM, first compound 0.0316 µM) was 95.9%, the viability, T/C (second compound 0.1 µM, first compound 0.1 µM) was 87.7% and the viability, T/C (second compound 0.1 µM, first compound 0.316 µM) was 91.6%. It also gave a viability, T/C (second compound 0.1 µM, first compound 1 µM) of 88.3%, a viability, T/C (second compound 0.1 µM, first compound 3.16 µM) of 79.5% and a viability, T/C (second compound 0.1 µM, first compound 10 µM) of 18.5%. For the same compound, the viability, T/C (second compound 0.316 µM, first compound 0.0316 µM) was 84.2%, the viability, T/C (second compound 0.316 µM, first compound 0.1 µM) was 84.8% and the viability, T/C (second compound 0.316 µM, first compound 0.316 µM) was 80.2%. For the same compound, the viability, T/C (second compound 0.316 µM, first compound 1 µM) was 81.3%, the viability, T/C (second compound 0.316 µM, first compound 3.16 µM) was 70.5% and the viability, T/C (second compound 0.316 µM, first compound 10 µM) was 28.3%. The viability, T/C (second compound 1 µM, first compound 0.0316 µM) was 70.4%, the viability, T/C (second compound 1 µM, first compound 0.1 µM) was 79.6% and the viability, T/C (second compound 1 µM, first compound 0.316 µM) was 70.5%. It also gave a viability, T/C (second compound 1 µM, first compound 1 µM) of 66.7%, a viability, T/C (second compound 1 µM, first compound 3.16 µM) of 53.1% and a viability, T/C (second compound 1 µM, first compound 10 µM) of 17%. For the same compound, the viability, T/C (second compound 3.16 µM, first compound 0.0316 µM) was 61.1%, the viability, T/C (second compound 3.16 µM, first compound 0.1 µM) was 63.5% and the viability, T/C (second compound 3.16 µM, first compound 0.316 µM) was 57.3%. It also gave a viability, T/C (second compound 3.16 µM, first compound 1 µM) of 54.1%, a viability, T/C (second compound 3.16 µM, first compound 3.16 µM) of 43.2% and a viability, T/C (second compound 3.16 µM, first compound 10 µM) of 15.4%. It also gave a viability, T/C (second compound 10 µM, first compound 0.0316 µM) of 44%, a viability, T/C (second compound 10 µM, first compound 0.1 µM) of 44.8% and a viability, T/C (second compound 10 µM, first compound 0.316 µM) of 43.3%. The viability, T/C (second compound 10 µM, first compound 1 µM) was 53.2%, the viability, T/C (second compound 10 µM, first compound 3.16 µM) was 31.9% and the viability, T/C (second compound 10 µM, first compound 10 µM) was 11.5%.

In the case of `CC(C)n1nc(-c2ccc3oc(N)nc3c2)c2c(N)ncnc21`, the viability, T/C (compound 0.000316 µM) is reported as 105% [middle of 4 runs], the viability, T/C (compound 0.001 µM) is reported as 85.2% [middle of 4 runs] and the viability, T/C (compound 0.00316 µM) is reported as 89.4% [middle of 4 runs]. The viability, T/C (compound 0.01 µM) was 88.6% [middle of 4 runs], the viability, T/C (compound 0.0316 µM) was 67% [middle of 4 runs] and the viability, T/C (compound 0.1 µM) was 35.7% [middle of 4 runs]. For the same compound, the IC50 (curve of compound) was 58.6 nM [middle of 4 runs].
